Calls of active or inactive are those of the source.
Assays:
[1] = cells
[2] = ZM109 Env clade C HIV-1 fusion inhibitors, dose response, HeLa effector, CEM target cells, luciferase, cherry-pick (AID 652058); type: functional, cell-based
[3] = off-target signal loss in HeLa-CEM21 co-culture – HeLa F-luc CTL cells, cherry-picked, counter-screen for HIV-1 Env fusion inhibitor project, dose response (AID 652040); type: functional, cell-based;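 further: potency for signal decrease marking cytotoxic or nonspecific inhibition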
[4] = HEp-2 cell cytotoxicity, dose response, cytotoxicity control for RSV inhibitor project, HTS (AID 2410); type: functional; details: human respiratory syncytial virus
[5] = inhibitors of clade B AD8 Env fusion, dose response, cell-based, cherry-pick (AID 652062); type: functional;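 further: luciferase signal from cell-cell fusion driven by HIV-1 clade B AD8 Env; potency is for inhibitors of fusion seen as a drop in luminescence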
[6] = inhibitors of HIV Env-driven cell fusion, dose response, cherry-pick (AID 652057); type: functional, cell-based
[7] = molecular target: Paired box protein Pax-8 (Homo sapiens, UniProt Q06710); assay: inhibitors of PAX8-driven TPO luciferase reporter, dose response, RMG-I cells, cherry-pick (AID 687027); type: functional, cell-based;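 further: luciferase reporter driven by Pax8 target thyroperoxidase promoter measured by SteadyGlo luminescence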
[8] = non-specific cell cytotoxicity, dose response, cytotoxicity control for PAX8 inhibitor project, plate reader, dry powder samples (AID 743021); type: functional, cell-based
[9] = inhibitors of PGC1a acetylation in cells, dose response, cell-based, cherry-picked samples (AID 720514); type: functional;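 further: potency may reflect raised or lowered acetylation signal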
[10] = molecular target: T1, Voltage-gated N-type calcium channel alpha-1B subunit/Amyloid beta A4 precursor protein-binding family A member 1 (Homo sapiens, UniProt Q00975+Q02410); type: protein assay
[11] = molecular target: T1, Voltage-gated N-type calcium channel alpha-1B subunit/Amyloid beta A4 precursor protein-binding family A member 1; type: protein assay; remark: listed apart in the source
[12] = molecular target: Large T antigen (Simian virus 40, UniProt P03070); type: functional, Betapolyomavirus macacae;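 further: Confirmatory-stage PubChem screen for compounds that inhibit SV40 T antigen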
[13] = THP-1 cell cytotoxicity, dose response, cytotoxicity control for Vif-APOBEC3G degradation inhibitor project, THP-1 cells (AID 1117359); type: functional; details: Human immunodeficiency virus 1, THP-1
[14] = tested on: Streptococcus sp. 'group A'; assay: growth inhibition of control SK(-) GAS strain, dose response, counter-screen for streptokinase expression inhibitor project, luminescence, kanamycin, BacTiterGlo, confirmation (AID 1900); type: functional, organism-based
[15] = tested on: Streptococcus; assay: Group A Streptococcus viability loss, dose response, counter-screen for streptokinase expression inhibitor project, luminescence, BacTiterGlo (AID 1915); type: functional, organism-based;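 further: potency for reduction of bacterial viability or growth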
[16] = molecular target: T2, Streptokinase A (Streptococcus pyogenes serotype M1, UniProt P10520); assay: S. pyogenes streptokinase expression inhibitors, potency, dose response, plasminogen activation absorbance, OD405 (AID 1914); type: functional, Streptococcus pyogenes M1 GAS;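 further: secreted streptokinase activity via plasminogen activation per viability signal from cell pellet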
T2 sequence (P10520 whole entry): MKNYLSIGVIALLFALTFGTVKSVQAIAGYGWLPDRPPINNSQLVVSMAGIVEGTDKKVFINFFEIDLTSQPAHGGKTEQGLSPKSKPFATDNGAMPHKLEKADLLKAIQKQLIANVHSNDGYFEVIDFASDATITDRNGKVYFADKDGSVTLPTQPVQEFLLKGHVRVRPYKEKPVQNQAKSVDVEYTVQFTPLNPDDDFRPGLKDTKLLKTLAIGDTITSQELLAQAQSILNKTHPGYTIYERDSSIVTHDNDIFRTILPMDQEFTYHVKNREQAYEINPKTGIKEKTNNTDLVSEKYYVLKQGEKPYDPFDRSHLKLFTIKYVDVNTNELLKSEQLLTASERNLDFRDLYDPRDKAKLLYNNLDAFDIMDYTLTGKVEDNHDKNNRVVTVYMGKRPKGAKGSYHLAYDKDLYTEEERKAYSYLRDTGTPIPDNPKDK

T1 sequence (Q00975 whole entry): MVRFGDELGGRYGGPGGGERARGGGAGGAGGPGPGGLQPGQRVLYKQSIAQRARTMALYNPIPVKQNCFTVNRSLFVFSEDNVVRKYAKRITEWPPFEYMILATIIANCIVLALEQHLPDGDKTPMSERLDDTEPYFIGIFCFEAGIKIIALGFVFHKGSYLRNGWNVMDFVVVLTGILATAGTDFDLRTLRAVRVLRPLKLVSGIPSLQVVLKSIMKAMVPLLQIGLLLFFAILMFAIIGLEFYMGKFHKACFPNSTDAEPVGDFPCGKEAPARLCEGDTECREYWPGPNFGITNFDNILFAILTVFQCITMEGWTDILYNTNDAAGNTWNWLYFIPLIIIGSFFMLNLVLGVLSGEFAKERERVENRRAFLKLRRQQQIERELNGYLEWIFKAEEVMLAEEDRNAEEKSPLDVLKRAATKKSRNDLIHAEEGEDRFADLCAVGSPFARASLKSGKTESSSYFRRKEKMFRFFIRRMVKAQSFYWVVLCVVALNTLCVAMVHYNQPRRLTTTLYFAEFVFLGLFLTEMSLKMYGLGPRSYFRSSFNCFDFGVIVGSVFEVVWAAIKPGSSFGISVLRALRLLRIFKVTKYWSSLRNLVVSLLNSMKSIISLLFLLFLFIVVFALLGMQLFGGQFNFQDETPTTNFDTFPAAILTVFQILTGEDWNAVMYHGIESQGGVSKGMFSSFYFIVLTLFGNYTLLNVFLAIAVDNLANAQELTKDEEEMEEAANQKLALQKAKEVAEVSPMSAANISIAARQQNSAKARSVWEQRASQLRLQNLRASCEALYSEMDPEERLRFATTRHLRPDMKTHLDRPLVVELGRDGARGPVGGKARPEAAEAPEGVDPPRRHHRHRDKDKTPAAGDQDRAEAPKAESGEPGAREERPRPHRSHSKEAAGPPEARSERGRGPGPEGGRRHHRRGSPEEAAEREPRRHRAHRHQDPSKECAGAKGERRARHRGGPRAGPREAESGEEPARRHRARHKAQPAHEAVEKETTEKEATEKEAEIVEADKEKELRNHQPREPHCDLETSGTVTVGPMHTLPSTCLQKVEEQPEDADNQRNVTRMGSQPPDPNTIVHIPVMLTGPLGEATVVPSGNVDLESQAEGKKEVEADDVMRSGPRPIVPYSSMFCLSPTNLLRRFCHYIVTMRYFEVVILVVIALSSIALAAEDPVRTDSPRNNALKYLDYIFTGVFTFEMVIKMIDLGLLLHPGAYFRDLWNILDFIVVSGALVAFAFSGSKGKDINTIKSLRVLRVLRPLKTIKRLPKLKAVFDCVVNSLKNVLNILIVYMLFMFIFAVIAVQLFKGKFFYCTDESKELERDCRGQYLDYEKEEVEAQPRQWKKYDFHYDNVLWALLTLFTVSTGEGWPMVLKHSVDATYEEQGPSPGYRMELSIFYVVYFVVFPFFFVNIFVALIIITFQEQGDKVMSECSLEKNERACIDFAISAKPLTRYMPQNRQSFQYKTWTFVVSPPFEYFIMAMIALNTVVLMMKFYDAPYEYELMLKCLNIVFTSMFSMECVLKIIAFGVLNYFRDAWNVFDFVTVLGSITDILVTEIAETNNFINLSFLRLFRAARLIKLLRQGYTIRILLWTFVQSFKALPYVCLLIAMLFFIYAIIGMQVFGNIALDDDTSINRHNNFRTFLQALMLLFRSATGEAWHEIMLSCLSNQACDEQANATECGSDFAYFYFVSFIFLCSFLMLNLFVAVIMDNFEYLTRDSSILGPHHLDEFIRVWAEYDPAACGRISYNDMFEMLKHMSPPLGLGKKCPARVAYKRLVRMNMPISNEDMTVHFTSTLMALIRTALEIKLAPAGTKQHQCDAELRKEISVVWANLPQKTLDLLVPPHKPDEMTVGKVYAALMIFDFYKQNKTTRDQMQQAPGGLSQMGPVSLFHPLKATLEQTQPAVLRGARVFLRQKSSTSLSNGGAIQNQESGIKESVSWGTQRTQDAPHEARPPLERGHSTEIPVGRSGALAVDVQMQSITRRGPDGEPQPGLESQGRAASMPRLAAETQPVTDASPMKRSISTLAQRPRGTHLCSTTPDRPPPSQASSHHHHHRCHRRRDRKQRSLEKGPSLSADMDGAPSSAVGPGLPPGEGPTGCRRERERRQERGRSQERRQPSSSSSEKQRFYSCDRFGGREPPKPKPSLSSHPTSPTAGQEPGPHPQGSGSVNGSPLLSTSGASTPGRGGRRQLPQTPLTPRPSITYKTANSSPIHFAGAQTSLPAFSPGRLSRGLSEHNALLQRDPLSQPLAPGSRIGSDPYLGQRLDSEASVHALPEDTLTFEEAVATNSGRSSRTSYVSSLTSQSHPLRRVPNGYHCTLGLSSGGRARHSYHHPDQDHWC
T1 sequence (Q02410 whole entry): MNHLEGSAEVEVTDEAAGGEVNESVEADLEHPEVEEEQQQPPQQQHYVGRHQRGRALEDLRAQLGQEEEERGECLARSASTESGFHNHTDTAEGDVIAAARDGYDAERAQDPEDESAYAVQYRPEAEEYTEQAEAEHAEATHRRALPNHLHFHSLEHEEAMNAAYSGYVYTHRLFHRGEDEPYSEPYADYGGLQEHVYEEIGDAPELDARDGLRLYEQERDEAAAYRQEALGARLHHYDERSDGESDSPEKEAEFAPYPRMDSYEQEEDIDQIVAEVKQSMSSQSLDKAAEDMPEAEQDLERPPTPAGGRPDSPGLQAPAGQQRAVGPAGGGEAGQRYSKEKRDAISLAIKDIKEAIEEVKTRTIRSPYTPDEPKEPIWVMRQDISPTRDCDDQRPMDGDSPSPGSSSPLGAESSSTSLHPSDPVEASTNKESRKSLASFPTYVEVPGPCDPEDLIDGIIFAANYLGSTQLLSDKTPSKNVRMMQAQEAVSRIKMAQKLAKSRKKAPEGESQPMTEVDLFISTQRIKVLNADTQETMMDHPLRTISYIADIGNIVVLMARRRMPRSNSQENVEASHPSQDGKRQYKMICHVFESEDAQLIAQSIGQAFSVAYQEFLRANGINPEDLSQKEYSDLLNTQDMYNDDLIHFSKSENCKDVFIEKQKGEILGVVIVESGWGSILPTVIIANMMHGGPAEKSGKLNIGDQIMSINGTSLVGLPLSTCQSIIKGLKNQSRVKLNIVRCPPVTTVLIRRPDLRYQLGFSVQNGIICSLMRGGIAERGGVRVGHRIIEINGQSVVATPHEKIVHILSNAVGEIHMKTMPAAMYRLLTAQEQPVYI
Large T antigen, sequence (P03070 whole entry): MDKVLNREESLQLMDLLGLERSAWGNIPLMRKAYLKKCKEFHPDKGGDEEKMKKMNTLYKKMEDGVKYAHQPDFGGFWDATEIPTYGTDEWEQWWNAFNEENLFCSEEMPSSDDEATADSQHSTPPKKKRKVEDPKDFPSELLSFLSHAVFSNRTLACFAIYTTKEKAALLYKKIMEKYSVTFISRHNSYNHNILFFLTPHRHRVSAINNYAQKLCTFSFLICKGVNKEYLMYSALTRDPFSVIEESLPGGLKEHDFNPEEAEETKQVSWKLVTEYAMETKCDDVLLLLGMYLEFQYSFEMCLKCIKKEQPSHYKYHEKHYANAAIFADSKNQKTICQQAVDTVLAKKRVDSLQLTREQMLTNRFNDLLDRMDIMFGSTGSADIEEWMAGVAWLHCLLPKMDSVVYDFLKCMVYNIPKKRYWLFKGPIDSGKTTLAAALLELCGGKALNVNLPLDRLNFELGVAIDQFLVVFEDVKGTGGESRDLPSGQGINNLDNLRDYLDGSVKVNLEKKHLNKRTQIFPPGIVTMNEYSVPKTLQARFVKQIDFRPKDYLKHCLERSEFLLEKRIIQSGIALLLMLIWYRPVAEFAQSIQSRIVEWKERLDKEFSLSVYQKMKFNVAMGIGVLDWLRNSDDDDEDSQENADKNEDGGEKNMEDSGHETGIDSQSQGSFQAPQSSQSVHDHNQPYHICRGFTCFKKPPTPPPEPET
Paired box protein Pax-8, sequence (Q06710 whole entry): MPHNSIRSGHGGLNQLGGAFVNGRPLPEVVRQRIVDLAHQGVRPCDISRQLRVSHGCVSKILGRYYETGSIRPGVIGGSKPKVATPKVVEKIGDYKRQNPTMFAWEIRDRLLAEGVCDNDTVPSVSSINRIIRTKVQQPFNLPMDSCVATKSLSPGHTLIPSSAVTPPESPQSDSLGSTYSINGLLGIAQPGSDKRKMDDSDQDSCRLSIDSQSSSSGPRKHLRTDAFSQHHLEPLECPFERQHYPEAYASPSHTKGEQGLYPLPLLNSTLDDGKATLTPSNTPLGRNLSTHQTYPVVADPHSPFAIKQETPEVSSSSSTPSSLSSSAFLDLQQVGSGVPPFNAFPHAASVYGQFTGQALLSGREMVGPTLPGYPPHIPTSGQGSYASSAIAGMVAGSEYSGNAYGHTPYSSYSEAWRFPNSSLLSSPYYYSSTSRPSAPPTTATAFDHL

For `O=C(NCc1ccco1)c1ccc(Cn2c(=O)c3sccc3n(Cc3cccc(F)c3)c2=O)cc1`, the IC50 [1] was 5.66 µM (active), the AC50 [2] was 0.58 µM (active) and the AC50 [3] was 0.348 µM (active). For the same compound, the CC50 [4] was > 12.5 µM (active), the AC50 [5] was 2.36 µM (active) and the AC50 [6] was < 0.26 µM (active).
For `O=S(=O)(/C=C/c1ccccc1)N1CCC(c2nc(O)c3nnn(Cc4ccc(F)cc4)c3n2)CC1`, the IC50 [1] was 12 µM (active) and the CC50 [4] was 19.1 µM (active).
In the case of `CC1=C(N2CC2)C(=O)C(CO)=C(N2CC2)C1=O`, the AC50 [7] is reported as < 0.26 µM (active) and the AC50 [8] is reported as 14.8 µM (active).
For `CC[C@H](C)[C@H](NC(=O)c1ccc(Cl)cc1)C(=O)OCC(=O)c1ccc2c(c1)NC(=O)CO2`, the AC50 [9] was 6.76 µM (active).
With `COc1ccc(-c2cc(C(=O)N/N=C/c3ccc4c(c3)OCO4)c3ccccc3n2)c(OC)c1` the IC50 [1] was 27.9 µM (active) and the CC50 [4] was 44.4 µM (active).
In the case of `Cc1c(Cc2ccccc2)sc(NC(=O)c2ccco2)c1C(N)=O`, the IC50 [10] is reported as > 50 µM (inactive) and the IC50 [11] is reported as 9.09 µM (active).
In the case of `CCN1C(=O)/C(=C\c2ccc([N+](=O)[O-])s2)C(=O)NC1=S`, the IC50 [12] is reported as 91.6 µM (active) and the CC50 [13] is reported as > 40 µM (active).
For `O=C(c1ccco1)N1CCN(C(=O)C2CCCc3c2[nH]c2ccc(Cl)cc32)CC1` (stereo not drawn), the IC50 [1] was 16 µM (active) and the CC50 [4] was 16.2 µM (active).
With `C=CCN1C(=O)NC(=O)/C(=C(/CC)Nc2ccc(N(C)C)cc2)C1=O` the EC50 [14] was 5.65 µM (active), the EC50 [15] was 9.73 µM (active) and the EC50 [16] was > 150 µM (not active). The CC50 [13] was > 40 µM (active).

Reference: ChEMBL document CHEMBL1201862, “PubChem BioAssay data set” (2004)
